Experimental data published in US5189021A, “Method of treating precocious puberty” (Roussel Uclaf, priority 1979, dated 1993).

Columns and labels:
[1] = system: testicular steroidogensis; experiment: Inhibitory activity against testicular steroidogenesis in men in good health, single intranasal dose; format: in vivo
Method: The inhibitory activity of [D Ser (tbu)^6 of des GlyNH^10 ] LH-RH ethylamide (described in German application Ser. No. 2,438,350) against testicular steroidogensis in men in good health was determined on men in good health aged 30 to 40 years. The said product was administered intranasally at a dose of 500 μg in a few drops of distilled water at 8 A.M. on the third day of the test. For 2 days prior to the treatment and for 6 days after the treatment, samples of blood were taken daily at 8 A.M., 3 P.M. and 10 P.M. On the day of administration of the LH-RH agonist, blood samples were taken at 11 A.M. and 6 P.M.
The seric concentrations of LH and FSH were measured by radioimmuno-logic dosages with double antibodies and the antibodies for measuring LH and FSH were furnished by the National Pituitary Agency of N.I.H. in Bethesda, Md. The seric concentrations of steroids was measured by radio-immuno-logic dosages in which one ml of serum was extracted with ether and the steroids were separated on a LH-20 column before measuring with radioimmuno-logic dosages. The radio-immuno-logic dosage results were determined by a program derived from model II of Rodbard et al [Second Karolinska Symposium on Research Methods in Reproductive Endroerinology Diczfalusky Editor, Copenhague (1970), p. 79-103]. The statistical significance was determined by the "multiple level test" of Duncan-Kramer [Kramer, Biometrics, Vol 12 (1956), p. 307]. The results are shown in the graphs on sheet 1 of the Figures filed herewith.

[2] = system: testicular steriodogenosis; experiment: Inhibitory activity on testicular steroidogenesis in a patient with prostate cancer; format: in vivo, human; conditions: 500 μg intranasally twice a day
From the text: The inhibitory activity of [D Ser (tbu)^6 of des GlyNH2^10 ] […] The results are reported in the graphs of sheet 2 of the Figures.

ovarian steroidogenosis = experiment: Inhibitory activity on ovarian steroidogenesis in women; format: in vivo; conditions: for reduction of seric levels of progesterone compared to the controls: typical levels (sheet 3)
Method: The inhibitory activity of [D Ser (tbu)^6 of des GlyNH2^10 ] LH-RH ethylamide on ovarian steroidogenosis in women was determined on 6 women aged 26 to 35 years with normal and regular menstrual cycles and without prior endocrinal or gynecological problems. The study was conducted for 6 consecutive cycles consisting of 2 pretreatment cycles, 2 treatment cycles and 2 post-treatment cycles. Two drops of a solution containing 500 μg of [D Ser (tbu)^6 des GlyNH2^10 ] LH-RH ethylamide were deposited on each nostril at 8 A.M. and 5 P.M. of a day between the 4th and 9th day after the peak of LH-day 0. Daily blood samples were taken between 4 and 6 P.M. to measure seric levels of LH, FSH, progesterone and estradiol which were determined by radioimmumo-logictests with double antibodies. The antibodies to measure LH and FSH were furnished by the National Pituitory Agency of N.I.H. of Bethesda, Md.
Estradiol and progesterone were measured with highly specific antibodies developed against 7-(O-carboxymethyl)-oxime of estradiol and 12-(O-carboxymethyl)-oxime of progesterone, respectively [3H] 17β-estradiol and ^125 I-progesterone-12-[O-carboxymethyl)-oxime]used as tracers. The serum was extracted with benzene and the steroids were separated with a LH-20 column before the determination. The radioimmunological results were exploited by the program derived from model II of Rodbard and Lewald as in Example 1 and the statistical significance was measured by the multiple level test of Ducan-Kramer of Example 1. The results are shown in the graphs of sheets 3 to 5 of the Figures.

[3] = 3rd day following administration, intranasal 500 μg
[4] = after single intranasal dose of 500 μg

`CCNC(=O)[C@@H]1CCCN1C(=O)[C@H](CCCNC(=N)N)NC(=O)[C@H](CC(C)C)NC(=O)[C@@H](COC(C)(C)C)NC(=O)[C@H](Cc1ccc(O)cc1)NC(=O)[C@H](CO)NC(=O)[C@H](Cc1c[nH]c2ccccc12)NC(=O)[C@H](Cc1c[nH]cn1)NC(=O)[C@@H]1CCC(=O)N1` [[D Ser (tbu)^6 des GlyNH2^10] LH-RH ethylamide] was tested, and the “concentration of 17-OH-progesterone relative to the initial control values” [1, 3] was 40%, the “concentration of testosterone relative to the initial control values” [1, 3] was 50% and the “day on which the steroid level returned to normal” value [1, 4] was “fourth day”. The “duration of the drop of seric levels of testicular steroids (testosterone and its precursors)” value [1, 4] was 3 days, the “LH and FSH plasmatic levels” value ([1]; intranasal 500 μg) was “increase” and the “seric concentration of pregnenolone, 17-OH-pregnenolone, progesterone, 17-OH-progesterone, Δ5-androstene-3β,17β-diol and testosterone” value ([1]; on the day of treatment, intranasal 500 μg) was “increased”. For the same molecule, the “diminution of the level of testosterone” value ([1]; single intranasal dose of 500 μg, human, 3rd day following administration) was 50%, the “androgenic steroids (plasmatic level)” value ([2]; prostate cancer patient) was “diminution” and the level of testosterone ([2]; two weeks of treatment) was “stabilized at a very low level”. For the same molecule, the “level of progesterone reduced as compared to the controls” value (ovarian steroidogenosis; 12 cycles, sheet 5, scale 13 to 127%) was 46%, the “level of progesterone as % of control values (pretreatment cycles = 100%)” value (ovarian steroidogenosis; cycles of post-treatment, 12 cycles) was 99% and the “level of progesterone as % of control values (pretreatment cycles = 100%)” value (ovarian steroidogenosis; cycles of treatment, 12 cycles) was 46%. The “reduction of seric levels of progesterone compared to the controls” value (ovarian steroidogenosis; first cycle of treatment) was 13%, the “reduction of seric levels of progesterone compared to the controls” value (ovarian steroidogenosis; second cycle of treatment) was 34% and the “level of seric progesterone in the 2 cycles of treatment” value (ovarian steroidogenosis; sheet 4) was “accelerated diminution”.
